Source: patent publication US9394295B2, “Antibacterial homopiperidinyl substituted 3,4-dihydro-1H-[1,8]naphthyridinones” (Janssen Sciences Ireland UC, priority 2011, dated 2016)
Values after ≈ are worked out from the molar mass of the structure shown. Where two headings read alike, the source gives them in different places.

Tests used:
[1] = biological target: T1, S. aureus ATCC 29213 FabI (Staphylococcus aureus, UniProt Q6GI75); assay: Staphylococcus aureus FabI enzyme inhibition assay; format: biochemical; details: 30 minutes at room temperature, NADH consumption
T1 sequence (Q6GI75 1-256): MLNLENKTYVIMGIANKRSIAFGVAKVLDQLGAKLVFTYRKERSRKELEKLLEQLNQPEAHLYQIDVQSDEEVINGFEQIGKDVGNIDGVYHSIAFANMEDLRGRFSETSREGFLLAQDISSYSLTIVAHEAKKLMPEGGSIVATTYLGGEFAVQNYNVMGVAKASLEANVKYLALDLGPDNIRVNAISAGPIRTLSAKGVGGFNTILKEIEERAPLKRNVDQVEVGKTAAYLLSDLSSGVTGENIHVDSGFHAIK
Experimental: FabI enzyme inhibition assays were carried out in half-area, 384-well microtitre plates. Compounds were evaluated in 40-μl assay mixtures containing 100 mM NaADA, pH 6.5 (ADA=N-[2-acetamido]-2iminodiacetic acid), 250 μM crotonoyl-CoA, 625 μM NADH and 50 μg/ml S. aureus ATCC 29213 FabI Inhibitors were typically varied over the range of 50 to 0.39 μM. The reaction mixtures were incubated for 30 minutes at room temperature and the reaction was stopped by adding 200 mM Tris buffer (pH 9.0) to create a pH-shift. The consumption of NADH was monitored by measuring the change in absorbance at […]. By comparing sample readings to those of negative (absence of compound) and positive (absence of enzyme) controls, the percent inhibition of enzymatic activity of the compounds was determined. A best-fit curve is fitted by a minimum of squares method. From this an IC50-value (expressed in μg/ml), resulting in 50% inhibition of enzymatic activity, was obtained.

[2] = tested on: Staphylococcus aureus ATCC 29213; assay: Antibacterial susceptibility testing: IC90 determination (STA); format: cell-based; details: ATCC29213, S. aureus ATCC 29213, 90% inhibitory concentration for bacterial growth, read-out: STA (361.159) IC90
Experimental: (§1) The following bacteria were used: Staphylococcus aureus ATCC 29213, methicillin-resistant Staphylococcus aureus (MRSA) ATCC 700788 and Escherichia coli ATCC 35218. The bacteria used in this study were grown overnight in flasks containing 100 ml Mueller-Hinton broth (Difco cat. nr. 0757-17) in sterile de-ionized water, with shaking, at 37° C. Stocks were store at −70° C. until use.
(§2) Bacteria were incubated on a tryptic soy agar plate containing 5% sheep blood (Becton Dickinson cat. nr. 254053) for 18-24 hours at 35° C. in aerobic conditions (first passage). For the second passage, fresh Mueller-Hinton broth is inoculated with 5-10 colonies and grown overnight at 35° C. until turbidity (reaching log-phase) in aerobic conditions is reached. The bacterial suspension is then adjusted to 0.5 McFarland density and further diluted 1:100 in Mueller Hinton broth medium. This is used as inoculum.
(§3) MIC assays were performed by the broth microdilution method in a 96-well format (flat-bottom microtitre plates) with a final volume of 0.1 ml Mueller Hinton broth containing two-fold serial dilutions of compounds and inoculated with 5×10^5 CFU/ml of bacteria (standard inoculum size according to CLSI guidelines). Inhibitors are typically varied over the range of 63 to 0.49 μM. The final DMSO concentration in the assay was 1.25% (maximum tolerable DMSO concentration=6%). In the assays where the effect of human serum on the activity of the compounds against S. aureus was tested, human serum was added at a final concentration of 10%. The plates were incubated at 35° C. for 16-20 hours. At the end of incubation the bacterial growth was quantified fluorometrically. For this, resazurin was added to all wells and the plates were re-incubated. The incubation time is dependent on the type of bacteria. A change in color from blue to pink indicated the growth of bacteria. The fluorescence was read in computer-controlled fluorometer (Fluoroskan Ascent FL, Labsystems) at an excitation wavelength 540 nm and an emission wavelength of 590 nm. The % growth inhibition achieved by the compounds was calculated according to standard methods. The IC90 (expressed in μg/ml) was defined as the 90% inhibitory concentration for bacterial growth. A panel of reference compounds were simultaneously tested for QC approval.

S. aureus = assay: Antibacterial susceptibility testing: IC90 determination with 10% human serum (STA + 10% HS); format: cell-based; details: Staphylococcus aureus; S. aureus with human serum at final concentration of 10%; read-out: STA + 10% HS (361.169) IC90
Experimental: as §1, §2, §3
The results are depicted in the table D2 below (STA+10% HS).

[3] = Cytotoxicity MTT assay (TOX HELAM); format: cell-based; details: human, HelaM cells, read-out: TOX HELAM (222.125) CC50
Experimental: Cytotoxicity of the compounds was evaluated using the MTT assay. Human HelaM cells grown in 96-well plates were exposed to serial dilutions of the tested compounds (final volume of 0.2 ml) and incubated for 72 hours at 37° C. and 5% CO2. Inhibitors are typically varied over the range of 25 to 0.8 μM. The final DMSO concentration in the assay is 0.5%. MTT (3-(4,5-Dimethylthiazol-2-yl)-2,5-diphenyltetrazolium bromide, a tetrazole) was added and reduced to purple formazan only in living cells. Solubilization of the formazan crystals was achieved by adding 100 μl 2-propanol. Cell viability was determined by measuring the absorbance of the reduced formazan, giving a purple color, at 540 nm and 690 nm. The absorbance measured at 690 nm was automatically subtracted from the absorbance at 540 nm, to eliminate the effects of non-specific absorption. The percent cytotoxicity achieved by the compounds was calculated according to standard methods. Cytotoxicity is reported as CC50, the concentration that causes a 50% reduction in cell viability.
The results are depicted in the table D2 below (TOX HELAM).

[4] = In vivo pharmacokinetic and oral bioavailability; details: male Swiss mice; for half-life: read-out: Half life (t1/2) (converted)
Experimental: The in vivo pharmacokinetics and oral bioavailability of the compound of the examples was/is investigated in male Swiss mice (fed) following single intravenous (i.v.) bolus and oral (p.o.) administration. For the i.v. and p.o. solution formulations, the compound was/is dissolved in a 20% HP-β-CD solution. The pH of the formulations was/is around pH 4. All i.v. formulations were isotonic.

S. aureus ATCC 29213 = assay: MIC broth microdilution (CLSI), S. aureus ATCC 29213; format: cell-based; details: Staphylococcus aureus, ATCC 29213 / MSSA, reference strain MSSA
Experimental: (§4) Minimum Inhibitory Concentrations (MICs) were determined in accordance with the Clinical and Laboratory Standards Institute (CLSI) methodology against aerobic bacteria (CLSI M07-A8) (see Clinical and Laboratory Standards Institute. 2009. Methods for dilution antimicrobial susceptibility tests for bacteria that grow aerobically. CLSI document M07-A8, Vol. 29, No. 2.) by the broth microdilution method with cation-adjusted Mueller-Hinton broth (CA-MHB) medium for the majority of organisms, except for Haemophilus influenza, where Haemophilis test medium (HTM) broth was used. Descriptions of the individual organisms can be found in the table. Where possible, ATCC standard strains were tested.
(§5) The inoculum density for the susceptibility testing was standardized to give a final inoculum of approximately 5×10^5 CFU/mL.
(§6) Stock solutions of the compounds were prepared in DMSO at concentrations of 1 mg/mL. Linezolid was prepared in DMSO at a concentration of 2 mg/mL. Stock solutions of all compounds were diluted into CA-MHB to give a range of two-fold dilutions, depending upon the sensitivity of the organism being tested.

S. aureus ATCC 43300 = assay: MIC broth microdilution (CLSI), S. aureus ATCC 43300; format: cell-based; details: Staphylococcus aureus, ATCC 43300 / MRSA, reference strain MRSA
Experimental: as §4, §5, §6

E. coli tolC mutant = assay: MIC broth microdilution (CLSI), E. coli tolC mutant; format: cell-based; details: Escherichia coli
Experimental: as §4, §5, §6

E. coli ATCC 25922 = assay: MIC broth microdilution (CLSI), E. coli ATCC 25922; format: cell-based; details: Escherichia coli, ATCC25922
Experimental: as §4, §5, §6

H. influenza ATCC 49247 = assay: MIC broth microdilution (CLSI), H. influenza ATCC 49247; format: cell-based; details: Haemophilus influenzae, ATCC49247, HTM broth
Experimental: as §4, §5, §6

[5] = mouse, plasma, iv, i.v. 2.5 mg/kg
[6] = mouse, plasma, po, p.o. 10 mg/kg

SMILES | IC50 [1] [nM] | IC90 [2] [µg/mL] | IC90 (S. aureus) [µg/mL] | CC50 at 72 h [3] [µg/mL] | melting point [°C] | Vdz ([4]; i.v. 2.5 mg/kg) [L/kg] | AUC(0-inf) [4, 5] [ng·h/mL] | C0 ([4]; mouse, plasma, iv, i.v. 2.5 mg/kg, 20% HP-β-CD solution) [ng/mL] | half-life [4, 5] [min] | clearance ([4]; mouse, plasma, iv, i.v. 2.5 mg/kg, read-out: Plasma clearance Cl (converted)) [mL/min/kg] | bioavailability ([4]; mouse, plasma, po, p.o. 10 mg/kg vs i.v. 2.5 mg/kg) [%] | AUC(0-inf) [4, 6] [ng·h/mL] | Tmax [4, 6] [h] | Cmax ([4]; mouse, plasma, po, p.o. 10 mg/kg, 20% HP-β-CD solution) [ng/mL] | half-life [4, 6] [min] | MIC90 (S. aureus ATCC 29213) [µg/mL] | MIC90 (S. aureus ATCC 43300) [µg/mL] | MIC90 (E. coli tolC mutant) [µg/mL] | MIC90 (E. coli ATCC 25922) [µg/mL] | MIC90 (H. influenza ATCC 49247) [µg/mL]
O=C1CCc2cc(/C=C/C(=O)N3CCCN(c4ccccc4)CC3)cnc2N1 [Co. No. 11] | 1040 | 3.24 (≈ 8.61 µM) | 5.76 | > 9.46 | 156 | – | – | – | – | – | – | – | – | – | – | – | – | – | – | –
Cc1ccc(F)cc1C1=CCN(C(=O)/C=C/c2cnc3c(c2)CCC(=O)N3)CCC1 [Co. No. 14] | 863 | 1.54 (≈ 3.8 µM) | 3.74 | 9.73 (≈ 24 µM) | – | 1.0 | 6700 | 4550 | 120 | 6 | 90 | 23800 | 1 | 3930 | 168 | – | – | – | – | –
O=C1CCc2cc(/C=C/C(=O)N3CCC=C(c4cccc(Cl)c4)CC3)cnc2N1 [Co. No. 19] | 1050 | 0.35 (≈ 0.858 µM) | 1.38 | > 20.4 | – | – | – | – | – | – | – | – | – | – | – | 0.125 (≈ 0.306 µM) | 0.25 (≈ 0.613 µM) | 1 (≈ 2.45 µM) | > 8 | > 8
